One assay deals with Salmonella typhi. The experiment in a line: Antibacterial activity against Salmonella typhi. It counts as functional, Salmonella enterica subsp. enterica serovar Typhi. The note with it: Salmonella enterica.
In assay [1] the test system is Pseudomonas aeruginosa. The experiment in a line: Antibacterial activity against Pseudomonas aeruginosa. The class given is functional, organism-based.
In another assay the test system is Escherichia coli. Kind of assay: Antibacterial activity against Escherichia coli assessed as zone of inhibition at 100 ug/ml. The note with it: for zone of inhibition at 100 µg/mL: read-out: IZ. It counts as functional.
Another assay deals with Bacillus cereus. The experiment in a line: Antibacterial activity against Bacillus cereus assessed as zone of inhibition at 100 ug/ml. The class given is functional. The note with it: for zone of inhibition at 100 µg/mL: read-out: IZ.
A further assay relates to Staphylococcus aureus. Kind of assay: Antibacterial activity against Staphylococcus aureus assessed as zone of inhibition at 100 ug/ml. The note with it: for zone of inhibition at 100 µg/mL: read-out: IZ. The class given is functional.
The subject of assay [2] is Pseudomonas aeruginosa. Kind of assay: Antibacterial activity against Pseudomonas aeruginosa assessed as zone of inhibition at 100 ug/ml. The class given is functional. The note with it: for zone of inhibition at 100 µg/mL: read-out: IZ.

Our source for the MIC, zone of inhibition and inhibition zone (IZ) values is ChEMBL document CHEMBL4613208, “Isatin derivatives and their anti-bacterial activities” (Eur J Med Chem, 2019).

Values after ≈ are worked out from the molar mass of the structure shown.

Consider `Cc1ccc(C)c(/N=C2\C(=O)N(CC(=O)Nc3cc(C)ccc3C)c3ccccc32)c1`, for which the MIC in the assay with Salmonella typhi and with Pseudomonas aeruginosa [1] was 3 to 324 nM (≈ 1.23 to 133 ng/mL) throughout.

Consider `CN1CCN(CN2C(=O)/C(=N\NC(=O)COc3ccc(N4C(=O)CSC4c4ccccc4)c4cccnc34)c3ccccc32)CC1` (stereo unspecified), for which the zone of inhibition at 100 µg/mL in the assay on Escherichia coli, with Bacillus cereus, in the assay on Staphylococcus aureus and in the assay with Pseudomonas aeruginosa [2] was 6 to 19 mm throughout.

`O=C(COc1ccc(N2C(=O)CSC2c2ccccc2)c2cccnc12)N/N=C1\C(=O)N(CN2CCOCC2)c2ccccc21` (stereo unspecified): the zone of inhibition at 100 µg/mL in the assay with Escherichia coli, in the assay with Bacillus cereus, in the assay on Staphylococcus aureus and in the assay with Pseudomonas aeruginosa [2] was 6 to 19 mm throughout.

`O=C(COc1ccc(N2C(=O)C(Cl)C2c2ccc(Cl)cc2)c2cccnc12)N/N=C1\C(=O)N(CN2CCCCC2)c2ccccc21` (stereo unspecified): the zone of inhibition at 100 µg/mL in the assay with Escherichia coli, with Bacillus cereus, in the assay with Staphylococcus aureus and with Pseudomonas aeruginosa [2] was 6 to 19 mm each time.

For `Cc1ccc(C2C(Cl)C(=O)N2c2ccc(OCC(=O)N/N=C3\C(=O)N(CN4CCCCC4)c4ccccc43)c3ncccc23)cc1` (stereo unspecified), the zone of inhibition at 100 µg/mL with Escherichia coli, with Bacillus cereus, with Staphylococcus aureus and in the assay on Pseudomonas aeruginosa [2] was 6 to 19 mm in each case.

As to `Cc1nc2ccccc2cc1C(=O)N/N=C1\C(=O)Nc2c(Br)ccc(Br)c21`, the zone of inhibition at 100 µg/mL in the assay with Escherichia coli, in the assay on Bacillus cereus, in the assay with Staphylococcus aureus and with Pseudomonas aeruginosa [2] was 6 to 19 mm in each case.

Turning to `Cc1ccc(NC(=O)CN2C(=O)/C(=N\c3cc(C)ccc3C)c3ccccc32)c(C)c1`, the MIC against Salmonella typhi and in the assay on Pseudomonas aeruginosa [1] was 3 to 15 nM (≈ 1.23 to 6.17 ng/mL) in each case.

`O=C(COc1ccc(N2C(=O)CSC2c2ccc(Cl)cc2)c2cccnc12)N/N=C1\C(=O)N(CN2CCCCC2)c2ccccc21` (stereo unspecified): the zone of inhibition at 100 µg/mL with Escherichia coli, with Bacillus cereus, in the assay on Staphylococcus aureus and in the assay on Pseudomonas aeruginosa [2] was 6 to 19 mm in each case.

With `CN1CCN(CN2C(=O)/C(=N\NC(=O)COc3ccc(N4C(=O)C(Cl)C4c4ccccc4)c4cccnc34)c3ccccc32)CC1` (stereo unspecified), the zone of inhibition at 100 µg/mL with Escherichia coli, in the assay with Bacillus cereus, with Staphylococcus aureus and in the assay on Pseudomonas aeruginosa [2] was 6 to 19 mm throughout.

GENTAMICIN: the inhibition zone (IZ) in the assay with Escherichia coli, with Bacillus cereus, in the assay on Staphylococcus aureus and with Pseudomonas aeruginosa [2] was 19 to 27 mm in each case.

As for `Cc1nc2ccccc2cc1C(=O)N/N=C1\C(=O)Nc2c(Cl)cccc21`, the zone of inhibition at 100 µg/mL with Escherichia coli, in the assay with Bacillus cereus, in the assay with Staphylococcus aureus and in the assay on Pseudomonas aeruginosa [2] was 6 to 19 mm each time.

With `O=C(COc1ccc(N2C(=O)C(Cl)C2c2ccccc2)c2cccnc12)N/N=C1\C(=O)N(CN2CCCCC2)c2ccccc21` (stereo unspecified), the zone of inhibition at 100 µg/mL in the assay with Escherichia coli, in the assay on Bacillus cereus, in the assay on Staphylococcus aureus and in the assay with Pseudomonas aeruginosa [2] was 6 to 19 mm each time.

For the compound `O=C(COc1ccc(N2C(=O)C(Cl)C2c2ccccc2)c2cccnc12)N/N=C1\C(=O)N(CN2CCOCC2)c2ccccc21` (stereo unspecified), the zone of inhibition at 100 µg/mL with Escherichia coli, in the assay on Bacillus cereus, in the assay on Staphylococcus aureus and with Pseudomonas aeruginosa [2] was 6 to 19 mm throughout.

On to `COc1ccc(C2C(Cl)C(=O)N2c2ccc(OCC(=O)N/N=C3\C(=O)N(CN4CCCCC4)c4ccccc43)c3ncccc23)cc1` (stereo unspecified), for which the zone of inhibition at 100 µg/mL in the assay with Escherichia coli, in the assay with Bacillus cereus, in the assay on Staphylococcus aureus and with Pseudomonas aeruginosa [2] was 6 to 19 mm each time.

In the case of `COc1ccc(C2SCC(=O)N2c2ccc(OCC(=O)N/N=C3\C(=O)N(CN4CCCCC4)c4ccccc43)c3ncccc23)cc1` (stereo unspecified), the zone of inhibition at 100 µg/mL in the assay with Escherichia coli, in the assay with Bacillus cereus, with Staphylococcus aureus and with Pseudomonas aeruginosa [2] was 6 to 19 mm in each case.

For `Cc1ccc(C)c(/N=C2\C(=O)N(CC(=O)Nc3ccccc3)c3ccccc32)c1`, the MIC against Salmonella typhi and with Pseudomonas aeruginosa [1] was 3 to 324 nM (≈ 1.15 to 124 ng/mL) each time.

On to `Cc1nc2ccccc2cc1C(=O)N/N=C1\C(=O)Nc2c(Br)cc(Br)cc21`, for which the zone of inhibition at 100 µg/mL in the assay with Escherichia coli, in the assay with Bacillus cereus, in the assay on Staphylococcus aureus and in the assay with Pseudomonas aeruginosa [2] was 6 to 19 mm in each case.

For the compound `O=C(COc1ccc(N2C(=O)CSC2c2ccc(Br)cc2)c2cccnc12)N/N=C1\C(=O)N(CN2CCCCC2)c2ccccc21` (stereo unspecified), the zone of inhibition at 100 µg/mL with Escherichia coli, in the assay on Bacillus cereus, in the assay with Staphylococcus aureus and in the assay on Pseudomonas aeruginosa [2] was 6 to 19 mm each time.

`COc1cccc(NC(=O)CN2C(=O)/C(=N\c3cc(C)ccc3C)c3ccccc32)c1`: the MIC with Salmonella typhi and with Pseudomonas aeruginosa [1] was 3 to 15 nM (≈ 1.24 to 6.2 ng/mL) each time.

As for `Cc1nc2ccccc2cc1C(=O)N/N=C1\C(=O)Nc2c1ccc(Cl)c2Cl`, the zone of inhibition at 100 µg/mL with Escherichia coli, with Bacillus cereus, in the assay on Staphylococcus aureus and in the assay on Pseudomonas aeruginosa [2] was 6 to 19 mm each time.

On to `Cc1nc2ccccc2cc1C(=O)N/N=C1\C(=O)Nc2cc(Cl)cc(Cl)c21`, for which the zone of inhibition at 100 µg/mL with Escherichia coli, with Bacillus cereus, in the assay with Staphylococcus aureus and in the assay with Pseudomonas aeruginosa [2] was 6 to 19 mm throughout.

With `O=C(COc1ccc(N2C(=O)C(Cl)C2c2ccc([N+](=O)[O-])cc2)c2cccnc12)N/N=C1\C(=O)N(CN2CCCCC2)c2ccccc21` (stereo unspecified), the zone of inhibition at 100 µg/mL in the assay with Escherichia coli, in the assay on Bacillus cereus, in the assay with Staphylococcus aureus and in the assay with Pseudomonas aeruginosa [2] was 6 to 19 mm each time.

For `COc1ccc(NC(=O)CN2C(=O)/C(=N\c3cc(C)ccc3C)c3ccccc32)cc1`, the MIC against Salmonella typhi and with Pseudomonas aeruginosa [1] was 3 to 324 nM (≈ 1.24 to 134 ng/mL) throughout.

Turning to `Cc1nc2ccccc2cc1C(=O)N/N=C1\C(=O)Nc2ccc([N+](=O)[O-])cc21`, the zone of inhibition at 100 µg/mL in the assay on Escherichia coli, with Bacillus cereus, in the assay on Staphylococcus aureus and in the assay with Pseudomonas aeruginosa [2] was 6 to 19 mm each time.

Take `Cc1ccc(NC(=O)CN2C(=O)/C(=N\c3ccccc3)c3ccccc32)cc1C`: the MIC in the assay with Salmonella typhi and in the assay with Pseudomonas aeruginosa [1] was 3 to 324 nM (≈ 1.15 to 124 ng/mL) in each case.

In the case of `O=C(CN1C(=O)/C(=N\c2ccccc2)c2ccccc21)Nc1ccccc1`, the MIC in the assay with Salmonella typhi and against Pseudomonas aeruginosa [1] was 3 to 324 nM (≈ 1.07 to 115 ng/mL) each time.

Consider `Cc1ccc(C)c(/N=C2\C(=O)N(CC(=O)Nc3ccccc3C)c3ccccc32)c1`, for which the MIC in the assay on Salmonella typhi and against Pseudomonas aeruginosa [1] was 3 to 324 nM (≈ 1.19 to 129 ng/mL) in each case.

For `Cc1ccc(C)c(/N=C2\C(=O)N(CC(=O)Nc3ccc(C)c(C)c3)c3ccccc32)c1`, the MIC against Salmonella typhi and against Pseudomonas aeruginosa [1] was 3 to 324 nM (≈ 1.23 to 133 ng/mL) throughout.

Turning to `Cc1nc2ccccc2cc1C(=O)N/N=C1\C(=O)Nc2c(Br)cccc21`, the zone of inhibition at 100 µg/mL in the assay on Escherichia coli, in the assay with Bacillus cereus, with Staphylococcus aureus and with Pseudomonas aeruginosa [2] was 6 to 19 mm throughout.

`COc1cccc(NC(=O)CN2C(=O)/C(=N\c3ccccc3)c3ccccc32)c1`: the MIC in the assay with Salmonella typhi and against Pseudomonas aeruginosa [1] was 3 to 324 nM (≈ 1.16 to 125 ng/mL) each time.

`Cc1nc2ccccc2cc1C(=O)N/N=C1\C(=O)Nc2ccc(F)cc21`: the zone of inhibition at 100 µg/mL in the assay on Escherichia coli, in the assay on Bacillus cereus, in the assay with Staphylococcus aureus and in the assay with Pseudomonas aeruginosa [2] was 6 to 19 mm throughout.

With `Cc1nc2ccccc2cc1C(=O)N/N=C1\C(=O)Nc2ccc(Cl)c(Cl)c21`, the zone of inhibition at 100 µg/mL in the assay on Escherichia coli, in the assay on Bacillus cereus, with Staphylococcus aureus and in the assay with Pseudomonas aeruginosa [2] was 6 to 19 mm each time.

On to `Cc1nc2ccccc2cc1C(=O)N/N=C1\C(=O)Nc2cccc(Cl)c21`, for which the zone of inhibition at 100 µg/mL in the assay on Escherichia coli, in the assay with Bacillus cereus, in the assay on Staphylococcus aureus and in the assay with Pseudomonas aeruginosa [2] was 6 to 19 mm each time.

As for `O=C(COc1ccc(N2C(=O)CSC2c2ccc([N+](=O)[O-])cc2)c2cccnc12)N/N=C1\C(=O)N(CN2CCCCC2)c2ccccc21` (stereo unspecified), the zone of inhibition at 100 µg/mL with Escherichia coli, in the assay on Bacillus cereus, in the assay on Staphylococcus aureus and with Pseudomonas aeruginosa [2] was 6 to 19 mm throughout.

With `Cc1nc2ccccc2cc1C(=O)N/N=C1\C(=O)Nc2ccccc21`, the zone of inhibition at 100 µg/mL with Escherichia coli, with Bacillus cereus, with Staphylococcus aureus and in the assay on Pseudomonas aeruginosa [2] was 6 to 19 mm each time.

As for `O=C(COc1ccc(N2C(=O)C(Cl)C2c2ccc(Br)cc2)c2cccnc12)N/N=C1\C(=O)N(CN2CCCCC2)c2ccccc21` (stereo unspecified), the zone of inhibition at 100 µg/mL in the assay on Escherichia coli, in the assay with Bacillus cereus, in the assay on Staphylococcus aureus and in the assay on Pseudomonas aeruginosa [2] was 6 to 19 mm throughout.

Take `Cc1ccc(C2SCC(=O)N2c2ccc(OCC(=O)N/N=C3\C(=O)N(CN4CCCCC4)c4ccccc43)c3ncccc23)cc1` (stereo unspecified): the zone of inhibition at 100 µg/mL with Escherichia coli, in the assay on Bacillus cereus, in the assay on Staphylococcus aureus and in the assay with Pseudomonas aeruginosa [2] was 6 to 19 mm in each case.

`Cc1nc2ccccc2cc1C(=O)N/N=C1\C(=O)Nc2ccc(F)c(Cl)c21`: the zone of inhibition at 100 µg/mL in the assay with Escherichia coli, with Bacillus cereus, with Staphylococcus aureus and in the assay with Pseudomonas aeruginosa [2] was 6 to 19 mm each time.

`O=C(COc1ccc(N2C(=O)CSC2c2ccccc2)c2cccnc12)N/N=C1\C(=O)N(CN2CCCCC2)c2ccccc21` (stereo unspecified): the zone of inhibition at 100 µg/mL in the assay with Escherichia coli, with Bacillus cereus, in the assay with Staphylococcus aureus and with Pseudomonas aeruginosa [2] was 6 to 19 mm throughout.

A word on the MIC: it is the lowest concentration that inhibits growth of the organism. A lower MIC goes with a more susceptible organism.
